According to US6737383B1, “Herbicidal oxadiazolidines” (priority 1999, dated 2004):

Key:
[1] = test system: corn; experiment: Test B pre/postemergence corn; format: in vivo, Zea mays
Source text: (§1) Seeds of bedstraw (Galium aparine), blackgrass (Alopecurus myosuroides), surinam grass (Brachiaria decumbens), cocklebur (Xanthium strumarium), corn (Zea mays), crabgrass (Digitaria sanguinalis), giant foxtail (Setaria faberii), morningglory (Ipomoea hederacea), pigweed (Amaranthus retroflexus), rape (Brassica napus), soybean (Glycine max), sugar beet (Beta vulgaris), velvetleaf (Abutilon theophrasti), wheat (Triticum aestivum), wild oat (Avena fatua) and purple nutsedge (Cyperus rotundus) tubers were planted and treated preemnergence with test chemicals formulated in a non-phytotoxic solvent mixture which included a surfactant.
(§2) At the same time, these crop and weed species were also treated with postemergence applications of test chemicals formulated in the same manner. Plants ranged in height from 2 to 18 cm (1- to 4-leaf stage) for postemergence treatments. Plant species in the flood test consisted of rice (Oryza sativa), smallflower flatsedge (Cyperus difformis), duck salad (Heteranthera limosa) and bamyardgrass (Echinochloa crus-galli) grown to the 2-leaf stage for testing. Treated plants and controls were maintained in a greenhouse for twelve to sixteen days, after which all species were compared to controls and visually evaluated. Plant response ratings, summarized in Table B, are based on a scale of 0 to 10 where 0 is no effect and 10 is complete control. A dash (−) response means no test result.

[2] = test system: velvetleaf; experiment: Test B pre/postemergence velvetleaf; format: in vivo, Abutilon theophrasti
Source text: as §1, §2

[3] = test system: blackgrass; experiment: Test B pre/postemergence blackgrass; format: in vivo, Alopecurus myosuroides
Source text: as §1, §2

[4] = test system: rape; experiment: Test B pre/postemergence rape; format: in vivo, Brassica napus
Source text: as §1, §2

[5] = test system: wheat; experiment: Test B pre/postemergence wheat; format: in vivo, Triticum aestivum
Source text: as §1, §2

[6] = test system: purple nutsedge; experiment: Test B pre/postemergence purple nutsedge; format: in vivo, Cyperus rotundus
In short: (§3)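 Response is a visual 0-to-10 score relative to untreated plants, where 0 means no effect and 10 means complete control, taken twelve to sixteen days after application. Treatments went onto soil at planting and onto foliage of 1- to 4-leaf plants, using a surfactant-containing non-phytotoxic solvent.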

[7] = test system: surinam grass; experiment: Test B pre/postemergence surinam grass; format: in vivo, Brachiaria decumbens
Source text: as §1, §2

[8] = test system: wild oat; experiment: Test B pre/postemergence wild oat; format: in vivo, Avena fatua
Source text: as §1, §2

[9] = test system: soybean; experiment: Test B pre/postemergence soybean; format: in vivo, Glycine max
Source text: as §1, §2

[10] = test system: pigweed; experiment: Test B pre/postemergence pigweed; format: in vivo, Amaranthus retroflexus
Source text: as §1, §2

[11] = test system: sugar beet; experiment: Test B pre/postemergence sugar beet; format: in vivo, Beta vulgaris
Source text: as §1, §2

[12] = test system: morningglory; experiment: Test B pre/postemergence morningglory; format: in vivo, Ipomoea hederacea
Source text: as §1, §2

[13] = test system: cocklebur; experiment: Test B pre/postemergence cocklebur; format: in vivo, Xanthium strumarium
Source text: as §1, §2

[14] = test system: giant foxtail; experiment: Test B pre/postemergence giant foxtail; format: in vivo, Setaria faberii
Source text: as §1, §2

[15] = test system: crabgrass; experiment: Test B pre/postemergence crabgrass; format: in vivo, Digitaria sanguinalis
Source text: as §1, §2

[16] = test system: bedstraw; experiment: Test B pre/postemergence bedstraw; format: in vivo, Galium aparine
In short: as §3

[17] = Postemergence, Rate 62 g/ha, scale 0 to 10, 0 is no effect, 10 is complete control
[18] = Postemergence, Rate 125 g/ha, scale of 0 to 10 where 0 is no effect and 10 is complete control
[19] = Preemergence, Rate 125 g/ha, scale of 0 to 10 where 0 is no effect and 10 is complete control
[20] = Preemergence, Rate 250 g/ha, scale 0 (no effect) to 10 (complete control)
[21] = Rate 62 g/ha, Preemergence, scale 0 to 10
[22] = Rate 250 g/ha, Postemergence, scale 0 to 10, 0 is no effect, 10 is complete control
[23] = Rate 500 g/ha, Postemergence, scale 0 to 10, 0 is no effect, 10 is complete control
[24] = Rate 500 g/ha, Preemergence, scale 0 to 10 (0 no effect, 10 complete control)

## C#CCn1c(=O)on(C(=O)N(c2ccccc2)C(C)C)c1=O [Compound 754]
[1]; [17]
  Plant response rating, Corn: 0
[1]; [18]
  Corn plant response rating: 0
[1]; [19]
  Plant response rating, Corn: 0
[1]; [20]
  Corn plant response rating: 0
[1]; [21]
  Corn plant response rating: 0
[1]; [22]
  Corn plant response rating: 2
[1]; [23]
  Corn plant response rating: 5
[1]; [24]
  Corn plant response rating: 0
[2]; [17]
  Plant response rating, Velvetleaf: 0
[2]; [19]
  Plant response rating, Velvetleaf: 1
[2]; [20]
  Velvetleaf plant response rating: 3
[2]; [21]
  Velvetleaf plant response rating: 0
[2]; [22]
  Velvetleaf plant response rating: 0
[2]; [23]
  Velvetleaf plant response rating: 0
[2]; [24]
  Velvetleaf plant response rating: 5
[3]; [17]
  Plant response rating, Blackgrass: 2
[3]; [18]
  Blackgrass plant response rating: 4
[3]; [19]
  Plant response rating, Blackgrass: 9
[3]; [20]
  Blackgrass plant response rating: 9
[3]; [21]
  Blackgrass plant response rating: 7
[3]; [22]
  Blackgrass plant response rating: 5
[3]; [23]
  Blackgrass plant response rating: 5
[3]; [24]
  Blackgrass plant response rating: 9
[4]; [17]
  Plant response rating, Rape: 0
[4]; [18]
  Rape plant response rating: 0
[4]; [19]
  Plant response rating, Rape: 4
[4]; [20]
  Rape plant response rating: 6
[4]; [21]
  Rape plant response rating: 0
[4]; [22]
  Rape plant response rating: 0
[4]; [23]
  Rape plant response rating: 0
[4]; [24]
  Rape plant response rating: 8
[5]; [17]
  Plant response rating, Wheat: 0
[5]; [19]
  Plant response rating, Wheat: 3
[5]; [20]
  Wheat plant response rating: 7
[5]; [21]
  Wheat plant response rating: 0
[5]; [22]
  Wheat plant response rating: 5
[5]; [23]
  Wheat plant response rating: 5
[5]; [24]
  Wheat plant response rating: 9
[6]; [17]
  Plant response rating, Nutsedge: 0
[6]; [18]
  Nutsedge plant response rating: 0
[6]; [19]
  Plant response rating, Nutsedge: 3
[6]; [20]
  Nutsedge plant response rating: 3
[6]; [21]
  Nutsedge plant response rating: 3
[6]; [23]
  Nutsedge plant response rating: 0
[6]; [24]
  Nutsedge plant response rating: 10
[7]; [17]
  Plant response rating, B. signalgrass: 0
[7]; [18]
  B. signalgrass plant response rating: 2
[7]; Preemergence, Rate 62 g/ha, scale of 0 to 10 where 0 is no effect and 10 is complete control
  B. signalgrass plant response rating: 3
[7]; [19]
  Plant response rating, B. signalgrass: 3
[7]; [20]
  B. signalgrass plant response rating: 8
[7]; [22]
  B. signalgrass plant response rating: 6
[7]; [23]
  B. signalgrass plant response rating: 8
[7]; [24]
  B. signalgrass plant response rating: 9
[8]; [17]
  Plant response rating, Wild oats: 0
[8]; [19]
  Plant response rating, Wild oats: 6
[8]; [20]
  Wild oats plant response rating: 8
[8]; [21]
  Wild oats plant response rating: 0
[8]; [22]
  Wild oats plant response rating: 0
[8]; [23]
  Wild oats plant response rating: 0
[8]; [24]
  Wild oats plant response rating: 9
[9]; [17]
  Plant response rating, Soybean: 0
[9]; [19]
  Plant response rating, Soybean: 0
[9]; [20]
  Soybean plant response rating: 0
[9]; [21]
  Soybean plant response rating: 0
[9]; [22]
  Soybean plant response rating: 2
[9]; [23]
  Soybean plant response rating: 2
[9]; [24]
  Soybean plant response rating: 0
[10]; [18]
  Redroot pigweed plant response rating: 0
[10]; [19]
  Plant response rating, Redroot pigweed: 8
[10]; [20]
  Redroot pigweed plant response rating: 9
[10]; [21]
  Redroot pigweed plant response rating: 8
[10]; [22]
  Redroot pigweed plant response rating: 0
[10]; [24]
  Redroot pigweed plant response rating: 9
[11]; [17]
  Plant response rating, Sugarbeets: 0
[11]; [19]
  Plant response rating, Sugarbeets: 0
[11]; [20]
  Sugarbeets plant response rating: 3
[11]; [21]
  Sugarbeets plant response rating: 0
[11]; [22]
  Sugarbeets plant response rating: 0
[11]; [23]
  Sugarbeets plant response rating: 3
[11]; [24]
  Sugarbeets plant response rating: 7
[12]; [17]
  Plant response rating, Morningglory: 10
[12]; [18]
  Morningglory plant response rating: 10
[12]; [19]
  Plant response rating, Morningglory: 0
[12]; [20]
  Morningglory plant response rating: 1
[12]; [21]
  Morningglory plant response rating: 0
[12]; [22]
  Morningglory plant response rating: 10
[12]; [23]
  Morningglory plant response rating: 10
[12]; [24]
  Morningglory plant response rating: 1
[13]; [17]
  Plant response rating, Cocklebur: 0
[13]; [18]
  Cocklebur plant response rating: 0
[13]; [19]
  Plant response rating, Cocklebur: 0
[13]; [20]
  Cocklebur plant response rating: 0
[13]; [21]
  Cocklebur plant response rating: 0
[13]; [22]
  Cocklebur plant response rating: 0
[13]; [23]
  Cocklebur plant response rating: 0
[13]; [24]
  Cocklebur plant response rating: 0
[14]; [17]
  Plant response rating, Giant foxtail: 4
[14]; [18]
  Giant foxtail plant response rating: 8
[14]; [19]
  Plant response rating, Giant foxtail: 9
[14]; [20]
  Giant foxtail plant response rating: 9
[14]; [21]
  Giant foxtail plant response rating: 8
[14]; [22]
  Giant foxtail plant response rating: 8
[14]; [23]
  Giant foxtail plant response rating: 8
[14]; [24]
  Giant foxtail plant response rating: 9
[15]; [17]
  Plant response rating, Crabgrass: 5
[15]; [18]
  Crabgrass plant response rating: 5
[15]; [19]
  Plant response rating, Crabgrass: 9
[15]; [20]
  Crabgrass plant response rating: 9
[15]; [21]
  Crabgrass plant response rating: 8
[15]; [22]
  Crabgrass plant response rating: 9
[15]; [23]
  Crabgrass plant response rating: 9
[15]; [24]
  Crabgrass plant response rating: 9
[16]; [18]
  Bedstraw plant response rating: 0
[16]; [19]
  Plant response rating, Bedstraw: 0
[16]; [20]
  Bedstraw plant response rating: 0
[16]; [21]
  Bedstraw plant response rating: 0
[16]; [22]
  Bedstraw plant response rating: 0
[16]; [24]
  Bedstraw plant response rating: 0
